Results from patent US20090163490A1, “Pyrrolopyrimidine Derivatives Used As HSP90 Inhibitors” (VERNALIS (R&D) LTD., priority 2006, published 2009).

The compounds below were run against T1, human full-length HSP90 (Homo sapiens, UniProt P08238) (assay: Fluorescence polarization (FP) binding assay). Conditions: competitive displacement of fluorescein-labelled probe from human full-length HSP90; activity range; read-out: ACTIVITY* (Activity in the FP binding assay).
T1 construct: E. coli expressed human full-length HSP90 protein, purified >95%; made in house; host or cells: E. coli
T1 sequence (P08238 whole entry): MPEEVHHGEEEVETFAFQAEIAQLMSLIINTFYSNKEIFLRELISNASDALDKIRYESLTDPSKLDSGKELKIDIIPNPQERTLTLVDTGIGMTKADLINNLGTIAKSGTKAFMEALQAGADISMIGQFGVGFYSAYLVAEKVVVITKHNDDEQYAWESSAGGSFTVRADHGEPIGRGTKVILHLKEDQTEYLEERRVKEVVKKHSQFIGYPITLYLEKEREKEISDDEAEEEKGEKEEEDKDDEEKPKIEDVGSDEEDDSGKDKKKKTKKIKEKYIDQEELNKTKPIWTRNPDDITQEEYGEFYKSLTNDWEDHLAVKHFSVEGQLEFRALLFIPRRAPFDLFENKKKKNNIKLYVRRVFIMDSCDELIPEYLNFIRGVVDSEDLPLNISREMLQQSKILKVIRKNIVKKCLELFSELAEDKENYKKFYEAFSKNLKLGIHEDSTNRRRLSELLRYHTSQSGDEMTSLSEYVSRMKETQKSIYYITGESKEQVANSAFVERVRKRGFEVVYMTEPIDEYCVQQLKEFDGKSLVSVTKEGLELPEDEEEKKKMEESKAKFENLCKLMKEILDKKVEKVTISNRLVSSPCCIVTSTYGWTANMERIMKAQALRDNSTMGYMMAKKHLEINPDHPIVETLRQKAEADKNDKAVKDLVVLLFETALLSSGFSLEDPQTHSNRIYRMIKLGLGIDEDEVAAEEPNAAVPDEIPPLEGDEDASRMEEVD
From the text: Fluorescence Polarization Assay
Fluorescence polarization {also known as fluorescence anisotropy} measures the rotation of a fluorescing species in solution, where the larger molecule the more polarized the fluorescence emission. When the fluorophore is excited with polarized light, the emitted light is also polarized. The molecular size is proportional to the polarization of the fluorescence emission.
The fluoroscein-labelled probe—
binds to HSP90 {full-length human, full-length yeast or N-terminal domain HSP90} and the anisotropy {rotation of the probe:protein complex} is measured.
Test compound is added to the assay plate, left to equilibrate and the anisotropy measured again. Any change in anisotropy is due to competitive binding of compound to HSP90, thereby releasing probe.
Stored at room temperature. • 3) BSA (bovine serum albumen) 10 mg/ml (New England Biolabs # B9001S) • 4) 20 mM probe in 100% DMSO stock concentration. Stored in the dark at RT. Working concentration is 200 nM diluted in AR water and stored at 4° C.
• 1) Add 100 μl×buffer to wells 1A and 12A(=FP BLNK) • 2) Prepare assay mix—all reagents are kept on ice with a lid on the bucket as the probe is light-sensitive.
• 3) Aliquot 100 μl assay mix to all other wells • 4) Seal plate and leave in dark at room temp for 20 minutes to equilibrate
This gives 2.5 mM {50×} stock cpd−assuming cpds 20 mM. • 4) Repeat for wells A2 to A10. Control in columns 11 and 12. • 5) Transfer 5 μl from row A to row B—not column 12. Mix well. • 6) Transfer 5 μl from row B to row C. […] Add 2 μl of 100 mM standard cpd to wells B12-H12 {is positive control} • 13) The Z′ factor is calculated from zero controls and positive wells.

`CCN(CC)CCOc1cc(-c2nc(OC3CCCC3)nc3[nH]cc(C#N)c23)c(Cl)cc1OC` [Example 80] and `CCN(CC)CCOc1cc(-c2nc(SC3CCCC3)nc3[nH]cc(C#N)c23)c(Cl)cc1OC` [Example 81] cannot be ordered by IC50: less than 500 nM for the first, less than 500 nM for the second.

`COc1cc(Cl)c(-c2nc(SC)nc3[nH]cc(C#N)c23)cc1OCCN1CCC(F)(F)CC1` [Example 64] and `COc1cc(Cl)c(-c2nc(SC)nc3[nH]cc(C#N)c23)cc1OCCN1CCC(F)(F)C1` [Example 74] cannot be ordered by IC50: less than 500 nM for the first, less than 500 nM for the second.

`COc1cc(Cl)c(-c2nc(OCCN3CC[C@@H](F)C3)nc3[nH]cc(C#N)c23)cc1OC` [Example 65] and `COc1cc(Cl)c(-c2nc(OCCN3CCC(F)CC3)nc3[nH]cc(C#N)c23)cc1OC` [Example 71] cannot be ordered by IC50: less than 500 nM for the first, less than 500 nM for the second.

`COc1cc(Cl)c(-c2nc(C(C)C)nc3[nH]cc(C#N)c23)cc1OC` [Example 70] and `CCN(CC)CCNc1nc(-c2cc(OC)c(OC)cc2Cl)c2c(C#N)c[nH]c2n1` [Example 69] fall in the same range of IC50: 500 to 10000 nM for the first, 500 to 10000 nM for the second.

`CCN(CC)CCCOc1nc(-c2cc(OC)c(OC)cc2Cl)c2c(C#N)c[nH]c2n1` [Example 59] and `CCN(CC)CCOc1nc(-c2cc(OC)c(OC)cc2Cl)c2c(C#N)c[nH]c2n1` [Example 56] cannot be ordered by IC50: less than 500 nM for the first, less than 500 nM for the second.

First: CCN(CC)CCOc1cc(-c2nc(CC(C)C)nc3[nH]cc(C#N)c23)c(Cl)cc1OC [Example 82]
Second: CCc1nc(-c2cc(OCCN(CC)CC)c(OC)cc2Cl)c2c(C#N)c[nH]c2n1 [Example 67]
The IC50 of the first is higher: 500 to 10000 nM for the first, less than 500 nM for the second. The second is the more potent here.

`COc1cc(-c2nc(OCCN3CCCC(F)C3)nc3[nH]cc(C#N)c23)c(Cl)cc1C#N` (centres unmarked) [Example 63] and `COc1cc(-c2nc(OCCN3CCCC(F)(F)C3)nc3[nH]cc(C#N)c23)c(Cl)cc1C#N` [Example 62] cannot be ordered by IC50: less than 500 nM for the first, less than 500 nM for the second.

`COc1cc(Cl)c(-c2nc(OCCCN3CCCC3=O)nc3[nH]cc(C#N)c23)cc1OC` [Example 57] and `COc1cc(Cl)c(-c2nc(Cc3ccccc3)nc3[nH]cc(C#N)c23)cc1OC` [Example 87] cannot be ordered by IC50: less than 500 nM for the first, less than 500 nM for the second.

`CCN(CC)CCOc1cc(-c2nc(Sc3nccs3)nc3[nH]cc(C#N)c23)c(Cl)cc1OC` [Example 92] and `COc1cc(Cl)c(-c2nc(SC(C)CN3CCC(F)(F)C3)nc3[nH]cc(C#N)c23)cc1OC` (centres unmarked) [Example 83] cannot be ordered by IC50: less than 500 nM for the first, less than 500 nM for the second.

In the case of `COc1cc(-c2nc(SC)nc3[nH]cc(C#N)c23)ccc1C#N` [Example 55], the IC50 is reported as 500 to 10000 nM.

Same assay, conditions: competitive displacement of fluorescein-labelled probe from human full-length HSP90; activity range; read-out: activity in the fluorescence polarization assay

`CCN(CC)CCOc1cc(-c2nc(SC)nc3[nH]cc(C#N)c23)c(Cl)cc1Cl` [Example 27, 4-[2,4-Dichloro-5-(2-diethylamino-ethoxy)-phenyl]-2-methylsulfanyl-7H-pyrrolo[2,3-d]pyrimidine-5-carbonitrile] and `CCN(CC)CCSc1nc(-c2cc(OC)c(Cl)cc2Cl)c2c(C#N)c[nH]c2n1` [Example 23, 4-(2,4-Dichloro-5-methoxy-phenyl)-2-(2-diethylamino-ethylsulfanyl)-7H-pyrrolo[2,3-d]pyrimidine-5-carbonitrile] cannot be ordered by IC50: less than 500 nM for the first, less than 500 nM for the second.

`COc1ccc(-c2nc(SC)nc3[nH]cc(C#N)c23)cc1OC` [Example 44, 4-(Dimethoxy-phenyl)-2-methylsulfanyl-7H-pyrrolo[2,3-d]pyrimidine-5-carbonitrile] and `COc1cc(Cl)c(-c2nc(SC)nc3[nH]cc(C#N)c23)cc1OC` [Example 29, 4-(2-Chloro-4,5-dimethoxy-phenyl)-2-methylsulfanyl-7H-pyrrolo[2,3-d]pyrimidine-5-carbonitrile] cannot be ordered by IC50: less than 500 nM for the first, less than 500 nM for the second.

First: Cc1ccc(-c2nc(Cl)nc3[nH]cc(C#N)c23)c(C)c1 [Example 8, 2-Chloro-4-(2,4-dimethyl-phenyl)-7H-pyrrolo[2,3-d]pyrimidine-5-carbonitrile]
Second: COc1nc(-c2ccc(F)cc2C)c2c(C#N)c[nH]c2n1 [Example 12, 4-(4-Fluoro-2-methyl-phenyl)-2-methoxy-7H-pyrrolo[2,3-d]pyrimidine-5-carbonitrile]
The IC50 of the first is lower: less than 500 nM for the first, 500 to 10000 nM for the second.

First: Cc1cc(F)ccc1-c1nc(OCCN2CCCC2)nc2[nH]cc(C#N)c12 [Example 13, 4-(4-Fluoro-2-methyl-phenyl)-2-(2-pyrrolidin-1-yl-ethoxy)-7H-pyrrolo[2,3-d]pyrimidine-5-carbonitrile]
Second: Cc1cc(F)ccc1-c1nc(OCCN2CCOCC2)nc2[nH]cc(C#N)c12 [Example 14, 4-(4-Fluoro-2-methyl-phenyl)-2-(2-morpholin-4-yl-ethoxy)-7H-pyrrolo[2,3-d]pyrimidine-5-carbonitrile]
The IC50 of the first is higher: greater than 10000 nM for the first, 500 to 10000 nM for the second. The second is the more potent here.

First: Cc1ccc(-c2ncnc3[nH]cc(C(N)=O)c23)c(C)c1 [Example 39, 4-(2,4-Dimethyl-phenyl)-7H-pyrrolo[2,3-d]pyrimidine-5-carboxylic Acid Amide]
Second: CSc1nc(-c2ccc(C)cc2C)c2c(Br)c[nH]c2n1 [Example 5, 5-Bromo-4-(2,4-dimethyl-phenyl)-2-methylsulfanyl-7H-pyrrolo[2,3-d]pyrimidine]
The IC50 of the first is higher: greater than 10000 nM for the first, 500 to 10000 nM for the second. The second is the more potent here.

`Cc1cc(F)ccc1-c1nc(SCCN2CCOCC2)nc2[nH]cc(C#N)c12` [Example 21, 4-(4-Fluoro-2-methyl-phenyl)-2-(2-morpholin-4-yl-ethylsulfanyl)-7H-pyrrolo[2,3-d]pyrimidine-5-carbonitrile] and `Cc1cc(F)ccc1-c1nc(SCCO)nc2[nH]cc(C#N)c12` [Example 20, 4-(4-Fluoro-2-methyl-phenyl)-2-(2-hydroxy-ethylsulfanyl)-7H-pyrrolo[2,3-d]pyrimidine-5-carbonitrile] cannot be ordered by IC50: less than 500 nM for the first, less than 500 nM for the second.

`COc1ccc(-c2nc(OCCN3CC[C@H](F)C3)nc3[nH]cc(C#N)c23)cc1OC` [Example 34, 4-(3,4-Dimethoxy-phenyl)-2-[2-(3(S)-fluoro-pyrrolidin-1-yl)-ethoxy]-7H-pyrrolo[2,3-d]pyrimidine-5-carbonitrile] and `COc1ccc(-c2nc(OCCN3CCC(F)(F)C3)nc3[nH]cc(C#N)c23)cc1OC` [Example 33, 2-[2-(3,3-Difluoro-pyrrolidin-1-yl)-ethoxy]-4-(3,4-dimethoxy-phenyl)-7H-pyrrolo[2,3-d]pyrimidine-5-carbonitrile] fall in the same range of IC50: 500 to 10000 nM for the first, 500 to 10000 nM for the second.

Compared with `CSc1nc(-c2ccc3c(c2)OCCO3)c2c(C#N)c[nH]c2n1` [Example 43, 4-(2,3-Dihydro-benzo[1,4]dioxin-6-yl)-2-methylsulfanyl-7H-pyrrolo[2,3-d]pyrimidine-5-carbonitrile], `CSc1nc(-c2ccc(C#N)cc2)c2c(C#N)c[nH]c2n1` [Example 3, 4-(4-cyano-phenyl)-2-methylsulfanyl-7H-pyrrolo[2,3-d]pyrimidine-5-carbonitrile] is lower in IC50: greater than 10000 nM for the first, less than 500 nM for the second. The second is the more potent here.

`COc1cc(Cl)c(-c2nc(SCC(=O)O)nc3[nH]cc(C#N)c23)cc1OCCN1CCC(F)(F)C1` [Example 50, (4-{2-Chloro-5-[2-(3,3-difluoro-pyrrolidin-1-yl)-ethoxy]-4-methoxy-phenyl}-5-cyano-7H-pyrrolo[2,3-d]pyrimidin-2-ylsulfanyl)-acetic Acid] and `COc1cc(Cl)c(-c2nc(OCCN3CC[C@H](F)C3)nc3[nH]cc(C#N)c23)cc1OC` [Example 35] cannot be ordered by IC50: less than 500 nM for the first, less than 500 nM for the second.

Compared with `CSc1nc(C(=O)N2Cc3ccccc3C2)c2c(C#N)c[nH]c2n1` [Example 93, 4-(1,3-Dihydro-isoindole-2-carbonyl)-2-methylsulfanyl-7H-pyrrolo[2,3-d]pyrimidine-5-carbonitrile], `COc1cc(-c2nc(SC)nc3[nH]cc(C#N)c23)c(Cl)cc1C#N` [Example 42, 4-(2-Chloro-4-cyano-5-methoxy)-2-methylsulfanyl-7H-pyrrolo[2,3-d]pyrimidine-5-carbonitrile] is lower in IC50: 500 to 10000 nM for the first, less than 500 nM for the second.

`CCN(CC)CCOc1cc(-c2nc(SC(C)C)nc3[nH]cc(C#N)c23)c(Cl)cc1OC` [Example 45, 4-[2-Chloro-5-(2-diethylamino-ethoxy)-4-methoxy-phenyl]-2-isopropylsulfanyl-7H-pyrrolo[2,3-d]pyrimidine-5-carbonitrile] and `CCN(CC)CCSc1nc(-c2cc(OC)c(C#N)cc2Cl)c2c(C#N)c[nH]c2n1` [Example 37, 4-(2-Chloro-4-cyano-5-methoxy-phenyl)-2-(2-diethylamino-ethylsulfanyl)-7H-pyrrolo[2,3-d]pyrimidine-5-carbonitrile] cannot be ordered by IC50: less than 500 nM for the first, less than 500 nM for the second.

`CNc1nc(-c2ccc(F)cc2C)c2c(C#N)c[nH]c2n1` [Example 17, 4-(4-Fluoro-2-methyl-phenyl)-2-methylamino-7H-pyrrolo[2,3-d]pyrimidine-5-carbonitrile] and `COc1cc(Cl)c(-c2nc(S(C)(=O)=O)nc3[nH]cc(C#N)c23)cc1OC` [Example 48, 4-(2-Chloro-4,5-dimethoxy-phenyl)-2-methanesulfonyl-7H-pyrrolo[2,3-d]pyrimidine-5-carbonitrile] fall in the same range of IC50: 500 to 10000 nM for the first, 500 to 10000 nM for the second.

`COc1cc(-c2nc(OCCN3CCCC3=O)nc3[nH]cc(C#N)c23)c(Cl)cc1Cl` [Example 25, 4-(2,4-Dichloro-5-methoxy-phenyl)-2-[2-(2-oxo-pyrrolidin-1-yl)-ethoxy]-7H-pyrrolo[2,3-d]pyrimidine-5-carbonitrile] gave an IC50 of less than 500 nM.
